Results on 8 molecules are retold here after patent publication US4022903A, “α-Thienyl and α-substituted thienyl, phenyl and substituted phenyl cyclopropylomethanols useful as biodegradable insecticides and mollusicides” (Abbott Laboratories, priority 1975, dated 1977).

For orientation: LD50 means the dose expected to kill half of the subjects tested. A high value points to lower toxicity.

Some results are limits rather than exact numbers.

One data set concerns Adult snails. Kind of data set: Molluscicide activity, adult snails. Format: in vivo. The following applies: 1 ppm, 0/10-2/10 inactive, 3/10-7/10 partially active, 8/10-10/10 active.
With `OC(c1ccc(C(F)(F)F)cc1)(c1cccs1)C1CC1` (stereo not drawn) [compound 2], the “Molluscicide, mortality, Adult” value is given as 0/10.
Same read-out and setting: the figure for `OC(c1ccc(C(F)(F)F)cc1)(c1ccc(Cl)s1)C1CC1` (stereo not drawn) [compound 5] is 1/10.
On to `OC(c1ccc(F)cc1)(c1ccc(Cl)s1)C1CC1` (stereo not drawn) [compound 9], for which the “Molluscicide, mortality, Adult” value was 0/10.
`OC(c1ccc(Br)cc1)(c1ccc(Cl)s1)C1CC1` (stereo not drawn) [compound 8]: the “Molluscicide, mortality, Adult” value is 3/10.
For the molecule `OC(c1ccc(Cl)cc1)(c1ccc(Cl)s1)C1CC1` (stereo not drawn) [compound 4], the “Molluscicide, mortality, Adult” value was 0/10.
Same read-out and setting: the figure for `Cc1ccc(C(O)(c2ccc(Cl)s2)C2CC2)cc1` (stereo not drawn) [compound 7] is 0/10.
With “α-(5-Chloro-2-Thienyl)4-Chlorophenylcyclopropylmethanol [No. 4]”, the “Molluscicide, mortality, Adult” value was 0/10.
With `OC(c1ccc(Cl)cc1)(c1cccs1)C1CC1` (stereo not drawn) [compound 1], the “Molluscicide, mortality, Adult” value was 0/10.

The data set is the same for the next values; noted with them: 10 ppm, 0/10-2/10 inactive, 3/10-7/10 partially active, 8/10-10/10 active.
In the case of `OC(c1ccc(C(F)(F)F)cc1)(c1cccs1)C1CC1` (stereo not drawn) [compound 2], the “Molluscicide, mortality, Adult” value is recorded as 6/10.
On the same count and under the same terms, the figure for `OC(c1ccc(C(F)(F)F)cc1)(c1ccc(Cl)s1)C1CC1` (stereo not drawn) [compound 5] is 0/10.
Consider `OC(c1ccc(F)cc1)(c1ccc(Cl)s1)C1CC1` (stereo not drawn) [compound 9], for which the “Molluscicide, mortality, Adult” value was 9/10.
As to `OC(c1ccc(Br)cc1)(c1ccc(Cl)s1)C1CC1` (stereo not drawn) [compound 8], the “Molluscicide, mortality, Adult” value is listed as 9/10.
Regarding `OC(c1ccc(Cl)cc1)(c1ccc(Cl)s1)C1CC1` (stereo not drawn) [compound 4], the “Molluscicide, mortality, Adult” value was 9/10.
Regarding `Cc1ccc(C(O)(c2ccc(Cl)s2)C2CC2)cc1` (stereo not drawn) [compound 7], the “Molluscicide, mortality, Adult” value was 9/10.
In the case of “α-(5-Chloro-2-Thienyl)4-Chlorophenylcyclopropylmethanol [No. 4]”, the “Molluscicide, mortality, Adult” value was 0/10.
Turning to `OC(c1ccc(Cl)cc1)(c1cccs1)C1CC1` (stereo not drawn) [compound 1], the “Molluscicide, mortality, Adult” value is given as 6/10.

In the next data set the test system is mites. Kind of data set: Leaf Disc Mite Assay. To be noted: 500 ppm, 48 hours, adult mites. It counts as in vivo. How it is done:
A stock solution of 50,000 ppm is prepared. The solution consists of 25 percent DMF, 75 percent IPA and approximately 4 percent Tween 20. The stock solution is diluted (1:20) to a concentration of 2500 ppm using as a diluent 70 percent acetone containing 0.1 percent Tween 20. The 2500 ppm solution is used for the initial screen.
Leaf discs 15 mm in diameter are cut from fresh Henderson Bush Lima Bean plants. Discs are then dropped in the appropriate dilution of the chemical being tested.
The leaf discs are allowed to dry and then placed on moistened filter paper in appropriately labeled petri dishes. Ten adult mites are placed on each disc. Nine discs are used for each compound. Percent mortality is determined after 48 hours.
When a compound is rated very active, 1:10 dilutions are made of the 2500 stock.
In the case of `OC(c1ccc(C(F)(F)F)cc1)(c1ccc(Cl)s1)C1CC1` (stereo not drawn) [compound 5], the “Mites, percent mortality (activity rating)” value (“Mites, percent mortality” for short) was “A (50-80 percent mortality is rated active (A))”.
Turning to `OC(c1ccc(Cl)cc1)(c1ccc(Cl)s1)C1CC1` (stereo not drawn) [compound 4], the “Mites, percent mortality” value was “A (50-80 percent mortality is rated active (A))”.

The data set is the same for the next values; noted with them: 2500 ppm, 48 hours, adult mites.
For `OC(c1ccc(C(F)(F)F)cc1)(c1cccs1)C1CC1` (stereo not drawn) [compound 2], the “Mites, percent mortality” value was “SIA (25-50 percent is slightly active (SIA))”.
Turning to `OC(c1ccc(C(F)(F)F)cc1)(c1ccc(Cl)s1)C1CC1` (stereo not drawn) [compound 5], the “Mites, percent mortality” value was “VA (80-100 percent mortality are rated very active (VA))”.
For `OC(c1ccc(Br)cc1)(c1ccc(Cl)s1)C1CC1` (stereo not drawn) [compound 8], the “Mites, percent mortality” value is given as “VA (80-100 percent mortality are rated very active (VA))”.
`OC(c1ccc(Cl)cc1)(c1ccc(Cl)s1)C1CC1` (stereo not drawn) [compound 4]: the “Mites, percent mortality” value is “VA (80-100 percent mortality are rated very active (VA))”.
As for `OC(c1ccc(Cl)cc1)(c1cccs1)C1CC1` (stereo not drawn) [compound 1], the “Mites, percent mortality” value was “SIA (25-50 percent is slightly active (SIA))”.

For the next data set, the system named is newly hatched snails of the strain B. glabrata. Kind of data set: Molluscicide activity, newly hatched snails. To be noted: 1 ppm, 24 hours, 26° C, 0/10-2/10 inactive, 3/10-7/10 partially active, 8/10-10/10 active. Format: in vivo.
Consider `OC(c1ccc(C(F)(F)F)cc1)(c1cccs1)C1CC1` (stereo not drawn) [compound 2], for which the “Molluscicide, mortality, New” value is 4/10.
In the case of `OC(c1ccc(C(F)(F)F)cc1)(c1ccc(Cl)s1)C1CC1` (stereo not drawn) [compound 5], the “Molluscicide, mortality, New” value was 8/10.
`OC(c1ccc(F)cc1)(c1ccc(Cl)s1)C1CC1` (stereo not drawn) [compound 9]: the “Molluscicide, mortality, New” value is reported as 5/10.
In the case of `OC(c1ccc(Br)cc1)(c1ccc(Cl)s1)C1CC1` (stereo not drawn) [compound 8], the “Molluscicide, mortality, New” value is given as 10/10.
Still for that read-out and setting: the figure for `OC(c1ccc(Cl)cc1)(c1ccc(Cl)s1)C1CC1` (stereo not drawn) [compound 4] is 7/10; for `Cc1ccc(C(O)(c2ccc(Cl)s2)C2CC2)cc1` (stereo not drawn) [compound 7] it is 4/10.
The same measure, in the same setting: the figure for “α-(5-Chloro-2-Thienyl)4-Chlorophenylcyclopropylmethanol [No. 4]” is 0/10.
Consider `OC(c1ccc(Cl)cc1)(c1cccs1)C1CC1` (stereo not drawn) [compound 1], for which the “Molluscicide, mortality, New” value is 6/10.

The same data set, now with this note: 10 ppm, 24 hours, 26° C, 0/10-2/10 inactive, 3/10-7/10 partially active, 8/10-10/10 active.
Take `OC(c1ccc(C(F)(F)F)cc1)(c1cccs1)C1CC1` (stereo not drawn) [compound 2]: the “Molluscicide, mortality, New” value is 10/10.
For the molecule `OC(c1ccc(C(F)(F)F)cc1)(c1ccc(Cl)s1)C1CC1` (stereo not drawn) [compound 5], the “Molluscicide, mortality, New” value is on record as 10/10.
Turning to `OC(c1ccc(F)cc1)(c1ccc(Cl)s1)C1CC1` (stereo not drawn) [compound 9], the “Molluscicide, mortality, New” value is reported as 10/10.
As for `OC(c1ccc(Br)cc1)(c1ccc(Cl)s1)C1CC1` (stereo not drawn) [compound 8], the “Molluscicide, mortality, New” value is recorded as 10/10.
With `OC(c1ccc(Cl)cc1)(c1ccc(Cl)s1)C1CC1` (stereo not drawn) [compound 4], the “Molluscicide, mortality, New” value is reported as 10/10.
On the same count and under the same terms, the figure for `Cc1ccc(C(O)(c2ccc(Cl)s2)C2CC2)cc1` (stereo not drawn) [compound 7] is 10/10; for “α-(5-Chloro-2-Thienyl)4-Chlorophenylcyclopropylmethanol [No. 4]” it is 0/10.
Consider `OC(c1ccc(Cl)cc1)(c1cccs1)C1CC1` (stereo not drawn) [compound 1], for which the “Molluscicide, mortality, New” value is 10/10.

Test system in another data set: not listed separately
As to the kind of experiment: Mice oral LD 50. To be noted: mouse, in vivo, orally.
On to `OC(c1ccc(C(F)(F)F)cc1)(c1ccc(Cl)s1)C1CC1` (stereo not drawn) [compound 5], for which the 50% lethal dose (LD50) is greater than 1000 mg/kg.
In the case of `OC(c1ccc(F)cc1)(c1ccc(Cl)s1)C1CC1` (stereo not drawn) [compound 9], the LD50 is greater than 300 mg/kg.
Still for that read-out and setting: as for `Cc1ccc(C(O)(c2ccc(Cl)s2)C2CC2)cc1` (stereo not drawn) [compound 7], the figure is greater than 1000 mg/kg.
